The source of these data is PubChem BioAssay (NCI).

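All cell lines were grown in 96-well plates and treated with compound for 48 hours. GI50 marks 50% less growth. The concentration for full growth arrest is given as TGI.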

Holding throughout (assay): NCI tumour cell line growth inhibition, 48 h
Assay [1] concerns OVCAR-8 ovarian.
In assay [2] the test system is HOP-62 NSCLC.
In assay [3] the test system is SK-OV-3 ovarian.
The test system of assay [4] is SK-MEL-2 melanoma.
The test system of assay [5] is HOP-92 NSCLC.
Assay [6] relates to HT29 colon.
Assay [7] deals with NCI/ADR-RES ovarian.
The subject of assay [8] is CAKI-1 renal.
Assay [9] relates to HCC-2998 colon.
For assay [10], the system named is SNB-75 CNS.

For `COc1ccc2cc(C(=O)/C=C/c3cccc(OC)c3OC)ccc2c1`, the GI50 in assay [1] is 8.88 µM; in assay [2], 17.4 µM; in assay [3], 23.7 µM; in [4], 21.3 µM; in [5], 36.2 µM; in assay [6], 4.07 µM. The GI50 in assay [7] is 6.57 µM; in assay [8], 11.6 µM; in [9] it was 14.2 µM; in [10], 18.5 µM. The TGI was 33.6 µM in assay [1]; 34.5 µM in assay [2]; 45.9 µM in assay [3]; 40.3 µM in [4]; > 100 µM in [5]; 17.6 µM in assay [6]. For the same compound, the TGI in assay [7] was determined as 34.3 µM; in assay [8], 31.9 µM; in [9] it was 27.2 µM; in [10], 35.6 µM.
With `COc1ccc(OC(=O)O[C@H]2[C@H](O[C@H]3[C@@H](O)COC(O[C@H]4C[C@H]5[C@@H]6CC=C7C[C@@H](O)CC[C@]7(C)[C@H]6CC[C@]5(C)[C@H]4[C@H](C)C(=O)CCC(C)C)[C@@H]3OC(C)=O)OC[C@@H](O)[C@@H]2O)cc1` (stereo not given in full), the GI50 in assay [1] was 12.7 µM; in assay [2], 0.0569 µM; in [3], 0.329 µM; in assay [4], 0.0199 µM; in [5], 0.013 µM; in [6], 0.541 µM. In addition, the GI50 in assay [7] is 13 µM; in [8], 0.0281 µM; in assay [9], 4.91 µM; in assay [10] it was < 0.01 µM. Besides, the TGI in [1] was 50.6 µM; in assay [2], 11.4 µM; in [3], 15.3 µM; in assay [4], 0.645 µM; in [5] it was 2.72 µM; in [6] it was 18.1 µM. Moreover, the TGI in assay [7] was > 100 µM; in assay [8], 1.63 µM; in [9], 21.4 µM; in assay [10], 10.9 µM.
On to `COc1cc(C2c3cc4c(cc3[C@H](OCCN(C)C)[C@@H]3COC(=O)C23)OCO4)cc(OC)c1O` (stereo not given in full), for which the TGI came to 2.92 µM in assay [1]; 0.366 µM in assay [2]; 1.31 µM in assay [3]; 2.44 µM in assay [4]; 1.5 µM in assay [5]; 3.01 µM in assay [6]. Besides, the TGI in [7] amounted to 15.1 µM; in [8], 1.07 µM; in assay [9], 2.55 µM; in assay [10] it was 3.79 µM.
